Results from patent US9125913B2, “Bcl-2-selective apoptosis-inducing agents for the treatment of cancer and immune diseases” (AbbVie Inc., priority 2008, dated 2015).

System: GST-Bcl-2
Assay: TR-FRET binding assay, Bcl-2
Conditions: TR-FRET Ki values
Method in brief: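 Compounds serially diluted in DMSO from 50 μM (2× starting concentration, 10% DMSO), mixed with GST-tagged protein, F-Bak peptide probe and Tb-labeled antibody, incubated 3 h at room temperature.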

Row | SMILES | Binding selectivity ratio (Bcl-XL Ki/Bcl-2 Ki)
1 | CC(=O)N1CCOC(CNc2ccc(S(=O)(=O)NC(=O)c3ccc(N4CCN(CC5=C(c6ccc(Cl)cc6)CC(C)(C)CC5)CC4)cc3Oc3cccc4[nH]cnc34)cc2[N+](=O)[O-])C1 (stereo not shown) [EXAMPLE 457, N-[(4-{[(4-acetylmorpholin-2-yl)methyl]amino}-3-nitrophenyl)sulfonyl]-2-(1H-benzimidazol-4-yloxy)-4-(4-{[2-(4-chlorophenyl)-4,4-dimethylcyclohex-1-en-1-yl]methyl}piperazin-1-yl)benzamide] | 7414
2 | CN(C)CC[C@H](Nc1ccc(S(=O)(=O)NC(=O)c2ccc(N3CCN(Cc4ccccc4-c4ccc(Cl)cc4)CC3)cc2Oc2ccccc2)cc1[N+](=O)[O-])c1cccs1 [Example 161, 4-{4-[(4′-chloro-1,1′-biphenyl-2-yl)methyl]piperazin-1-yl}-N-[(4-{[(1S)-3-(dimethylamino)-1-thien-2-ylpropyl]amino}-3-nitrophenyl)sulfonyl]-2-phenoxybenzamide] | >386.0
3 | CC1(C)CCC(CN2CCN(c3ccc(C(=O)NS(=O)(=O)c4cnc(OCCN5CCOCC5)c(C#N)c4)c(Oc4ccc5[nH]ccc5c4)c3)CC2)=C(c2ccc(Cl)cc2)C1 [EXAMPLE 388, 4-(4-{[2-(4-chlorophenyl)-4,4-dimethylcyclohex-1-en-1-yl]methyl}piperazin-1-yl)-N-{[5-cyano-6-(2-morpholin-4-ylethoxy)pyridin-3-yl]sulfonyl}-2-(1H-indol-5-yloxy)benzamide] | 185.1
4 | CC1(C)CCC(CN2CCN(c3ccc(C(=O)NS(=O)(=O)c4ccc(NCC5CCOCC5)c([N+](=O)[O-])c4)c(Oc4cccc5c4CCNC5)c3)CC2)=C(c2ccc(Cl)cc2)C1 [EXAMPLE 399, 4-(4-{[2-(4-chlorophenyl)-4,4-dimethylcyclohex-1-en-1-yl]methyl}piperazin-1-yl)-N-({3-nitro-4-[(tetrahydro-2H-pyran-4-ylmethyl)amino]phenyl}sulfonyl)-2-(1,2,3,4-tetrahydroisoquinolin-5-yloxy)benzamide] | >225764.520763495
5 | CC1(C)CCC(CN2CCN(c3ccc(C(=O)NS(=O)(=O)c4cnc(NCC5CCOCC5)c(C#N)c4)c(Oc4ccc5[nH]ccc5c4)c3)CC2)=C(c2ccc(Cl)cc2)C1 [EXAMPLE 352, 4-(4-{[2-(4-chlorophenyl)-4,4-dimethylcyclohex-1-en-1-yl]methyl}piperazin-1-yl)-N-({5-cyano-6-[(tetrahydro-2H-pyran-4-ylmethyl)amino]pyridin-3-yl}sulfonyl)-2-(1H-indol-5-yloxy)benzamide] | >96.7
6 | CN1CCN(c2ccc(S(=O)(=O)NC(=O)c3ccc(N4CCN(CC5=C(c6ccc(Cl)cc6)CC(C)(C)CC5)CC4)cc3Oc3ccc4[nH]ccc4c3)cc2[N+](=O)[O-])CC1 [Example 107, 4-(4-{[2-(4-chlorophenyl)-4,4-dimethylcyclohex-1-en-1-yl]methyl}piperazin-1-yl)-2-(1H-indol-5-yloxy)-N-{[4-(4-methylpiperazin-1-yl)-3-nitrophenyl]sulfonyl}benzamide] | 62.5
7 | CN(C)CCOc1ccc(-c2ccc(Cl)cc2)c(CN2CCN(c3ccc(C(=O)NS(=O)(=O)c4ccc(NN5CCN(C)CC5)c([N+](=O)[O-])c4)c(Oc4cccc5[nH]ccc45)c3)CC2)c1 [EXAMPLE 274, 4-[4-({4′-chloro-4-[2-(dimethylamino)ethoxy]-1,1′-biphenyl-2-yl}methyl)piperazin-1-yl]-2-(1H-indol-4-yloxy)-N-({4-[(4-methylpiperazin-1-yl)amino]-3-nitrophenyl}sulfonyl)benzamide] | 244.6
8 | CC1(C)CCC(CN2CCN(c3ccc(C(=O)NS(=O)(=O)c4ccc(NCC(F)(F)F)c([N+](=O)[O-])c4)c(Oc4cccc5[nH]ccc45)c3)CC2)=C(c2ccc(Cl)cc2)C1 [EXAMPLE 343, 4-(4-{[2-(4-chlorophenyl)-4,4-dimethylcyclohex-1-en-1-yl]methyl}piperazin-1-yl)-2-(1H-indol-4-yloxy)-N-({3-nitro-4-[(2,2,2-trifluoroethyl)amino]phenyl}sulfonyl)benzamide] | >1145.9
9 | CN(C)CC(=O)N1CCO[C@H](COc2ncc(S(=O)(=O)NC(=O)c3ccc(N4CCN(CC5=C(c6ccc(Cl)cc6)CC(C)(C)CC5)CC4)cc3Oc3cccc4[nH]cnc34)cc2Cl)C1 [EXAMPLE 423, 2-(1H-benzimidazol-4-yloxy)-N-[(5-chloro-6-{[(2S)-4-(N,N-dimethylglycyl)morpholin-2-yl]methoxy}pyridin-3-yl)sulfonyl]-4-(4-{[2-(4-chlorophenyl)-4,4-dimethylcyclohex-1-en-1-yl]methyl}piperazin-1-yl)benzamide] | 756.62
10 | CC1(C)CCC(CN2CCN(c3ccc(C(=O)NS(=O)(=O)c4cnc(OCC5(F)CCN(C(CF)CF)CC5)c(C(F)(F)F)c4)c(Oc4cccc5[nH]ncc45)c3)CC2)=C(c2ccc(Cl)cc2)C1 [EXAMPLE 459, 4-(4-{[2-(4-chlorophenyl)-4,4-dimethylcyclohex-1-en-1-yl]methyl}piperazin-1-yl)-N-{[6-({4-fluoro-1-[2-fluoro-1-(fluoromethyl)ethyl]piperidin-4-yl}methoxy)-5-(trifluoromethyl)pyridin-3-yl]sulfonyl}-2-(1H-indazol-4-yloxy)benzamide] | 541.58
11 | CC1(C)CCC(c2ccc(Cl)cc2)=C(CN2CCN(c3ccc(C(=O)NS(=O)(=O)c4ccc(NCC5CCOCC5)c([N+](=O)[O-])c4)c(Oc4ccc5[nH]ccc5c4)c3)CC2)C1 [EXAMPLE 290, 4-(4-{[2-(4-chlorophenyl)-5,5-dimethylcyclohex-1-en-1-yl]methyl}piperazin-1-yl)-2-(1H-indol-5-yloxy)-N-({3-nitro-4-[(tetrahydro-2H-pyran-4-ylmethyl)amino]phenyl}sulfonyl)benzamide] | >1808.5
12 | CNc1ccc(S(=O)(=O)NC(=O)c2ccc(N3CCN(CC4=C(c5ccc(Cl)cc5)CC(C)(C)CC4)CC3)cc2Oc2cccc3[nH]ccc23)cc1[N+](=O)[O-] [EXAMPLE 246, 4-(4-{[2-(4-chlorophenyl)-4,4-dimethylcyclohex-1-en-1-yl]methyl}piperazin-1-yl)-2-(1H-indol-4-yloxy)-N-{[4-(methylamino)-3-nitrophenyl]sulfonyl}benzamide] | 490.9
13 | CC(C1=C(c2ccc(Cl)cc2)CC(C)(C)CC1)N1CCN(c2ccc(C(=O)NS(=O)(=O)c3ccc(NC4CCN(C5CCOCC5)CC4)c([N+](=O)[O-])c3)c(Oc3ccc4[nH]ccc4c3)c2)CC1 (stereo not shown) [EXAMPLE 258, 4-(4-{1-[2-(4-chlorophenyl)-4,4-dimethylcyclohex-1-en-1-yl]ethyl}piperazin-1-yl)-2-(1H-indol-5-yloxy)-N-({3-nitro-4-[(1-tetrahydro-2H-pyran-4-ylpiperidin-4-yl)amino]phenyl}sulfonyl)benzamide] | 86
14 | CC1(C)CCC(CN2CCN(c3ccc(C(=O)NS(=O)(=O)c4ccc(NCC5CCS(=O)(=O)C5)c([N+](=O)[O-])c4)c(Oc4cccc5[nH]ccc45)c3)CC2)=C(c2ccc(Cl)cc2)C1 (stereo not shown) [EXAMPLE 326, 4-(4-{[2-(4-chlorophenyl)-4,4-dimethylcyclohex-1-en-1-yl]methyl}piperazin-1-yl)-N-[(4-{[(1,1-dioxidotetrahydrothien-3-yl)methyl]amino}-3-nitrophenyl)sulfonyl]-2-(1H-indol-4-yloxy)benzamide] | >5708.8
15 | CC(C)(C)c1ccc(CN2CCN(c3ccc(C(=O)NS(=O)(=O)c4ccc(NCC5CCOCC5)c([N+](=O)[O-])c4)c(Oc4ccc5[nH]ccc5c4)c3)CC2)c(-c2ccc(Cl)cc2)c1 [EXAMPLE 341, 4-{4-[(5-tert-butyl-4′-chloro-1,1′-biphenyl-2-yl)methyl]piperazin-1-yl}-2-(1H-indol-5-yloxy)-N-({3-nitro-4-[(tetrahydro-2H-pyran-4-ylmethyl)amino]phenyl}sulfonyl)benzamide] | >50.8
16 | CC1(C)CCC(CN2CCN(c3ccc(C(=O)NS(=O)(=O)c4ccc(NCC5CN(C6COC6)CCO5)c([N+](=O)[O-])c4)c(Oc4cccc5[nH]cnc45)c3)CC2)=C(c2ccc(Cl)cc2)C1 (stereo not shown) [EXAMPLE 433, 2-(1H-benzimidazol-4-yloxy)-4-(4-{[2-(4-chlorophenyl)-4,4-dimethylcyclohex-1-en-1-yl]methyl}piperazin-1-yl)-N-[(3-nitro-4-{[(4-oxetan-3-ylmorpholin-2-yl)methyl]amino}phenyl)sulfonyl]benzamide] | 228.55
17 | C#Cc1cc(S(=O)(=O)NC(=O)c2ccc(N3CCN(CC4=C(c5ccc(Cl)cc5)CC(C)(C)CC4)CC3)cc2Oc2cccc3[nH]ccc23)cnc1OCC1CCOCC1 [EXAMPLE 391, 4-(4-{[2-(4-chlorophenyl)-4,4-dimethylcyclohex-1-en-1-yl]methyl}piperazin-1-yl)-N-{[5-ethynyl-6-(tetrahydro-2H-pyran-4-ylmethoxy)pyridin-3-yl]sulfonyl}-2-(1H-indol-4-yloxy)benzamide] | >186.4
18 | CO[C@H]1CC[C@H](CNc2ccc(S(=O)(=O)NC(=O)c3ccc(N4CCN(CC5=C(c6ccc(Cl)cc6)CC(C)(C)CC5)CC4)cc3Oc3ccc4[nH]ccc4c3)cc2[N+](=O)[O-])CC1 [EXAMPLE 311, Trans-4-(4-{[2-(4-chlorophenyl)-4,4-dimethylcyclohex-1-en-1-yl]methyl}piperazin-1-yl)-2-(1H-indol-5-yloxy)-N-[(4-{[(4-methoxycyclohexyl)methyl]amino}-3-nitrophenyl)sulfonyl]benzamide] | >2538.5
19 | CC1(C)CCC(CN2CCN(c3ccc(C(=O)NS(=O)(=O)c4ccc(NCC(F)F)c([N+](=O)[O-])c4)c(Oc4ccc5[nH]ccc5c4)c3)CC2)=C(c2ccc(Cl)cc2)C1 [EXAMPLE 302, 4-(4-{[2-(4-chlorophenyl)-4,4-dimethylcyclohex-1-en-1-yl]methyl}piperazin-1-yl)-N-({4-[(2,2-difluoroethyl)amino]-3-nitrophenyl}sulfonyl)-2-(1H-indol-5-yloxy)benzamide] | >1309.5
